“And” between values parts separate entries of the source, which are not always exact repeats. Identical values can stand only once.
Tests used:
Test in all cases: PDSP GPCR panel primary binding assays at 10 μM
[1] = target: T1, cloned human or rodent CNS receptors, channels, and transporters (PDSP panel) (Homo sapiens, UniProt P08173); conditions: M4, primary assay
T1 construct: expressed in transfected cells
T1 sequence (P08173 1-479): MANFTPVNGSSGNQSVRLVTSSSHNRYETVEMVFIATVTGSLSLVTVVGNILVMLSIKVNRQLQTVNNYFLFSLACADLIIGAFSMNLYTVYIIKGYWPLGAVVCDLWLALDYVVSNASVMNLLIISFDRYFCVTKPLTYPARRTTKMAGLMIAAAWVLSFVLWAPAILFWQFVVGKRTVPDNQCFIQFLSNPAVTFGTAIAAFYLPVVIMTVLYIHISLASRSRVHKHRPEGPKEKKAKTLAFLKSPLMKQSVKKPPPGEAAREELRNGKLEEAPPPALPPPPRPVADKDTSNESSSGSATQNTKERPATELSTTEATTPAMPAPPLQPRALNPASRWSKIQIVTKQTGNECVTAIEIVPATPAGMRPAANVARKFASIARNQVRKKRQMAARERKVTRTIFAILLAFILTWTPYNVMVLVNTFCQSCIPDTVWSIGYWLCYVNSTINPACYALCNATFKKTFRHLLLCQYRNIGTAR
Procedure, shortened: (§1)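 Secondary binding curves (11 points, triplicate) were run at targets where the 10 μM primary screen, done in quadruplicate, displaced over 50% of radio-labelled standard ligand on average. Primary screening covered 46–47 cloned human or rodent CNS targets; H3, PBR and GABAA were not followed up.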

[2] = target: T2, cloned human or rodent CNS receptors, channels, and transporters (PDSP panel) (Homo sapiens, UniProt P25100); conditions: Alpha1D, primary assay
T2 construct: expressed in transfected cells
T2 sequence (P25100 1-572): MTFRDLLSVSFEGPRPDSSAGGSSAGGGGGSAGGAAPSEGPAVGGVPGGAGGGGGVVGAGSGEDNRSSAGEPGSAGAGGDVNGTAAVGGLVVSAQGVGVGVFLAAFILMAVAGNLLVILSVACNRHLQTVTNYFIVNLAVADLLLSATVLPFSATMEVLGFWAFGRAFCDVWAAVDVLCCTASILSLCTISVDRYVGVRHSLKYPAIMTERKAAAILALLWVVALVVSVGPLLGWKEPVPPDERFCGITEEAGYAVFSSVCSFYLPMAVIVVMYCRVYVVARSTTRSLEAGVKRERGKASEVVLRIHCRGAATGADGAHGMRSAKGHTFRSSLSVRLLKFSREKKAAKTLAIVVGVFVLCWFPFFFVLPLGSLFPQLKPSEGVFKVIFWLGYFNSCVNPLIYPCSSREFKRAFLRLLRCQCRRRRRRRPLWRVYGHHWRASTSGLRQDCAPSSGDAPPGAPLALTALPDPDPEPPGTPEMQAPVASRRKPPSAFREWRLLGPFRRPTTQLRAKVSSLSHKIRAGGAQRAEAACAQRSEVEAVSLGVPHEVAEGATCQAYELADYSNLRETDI
Procedure, shortened: as §1

[3] = target: T3, cloned human or rodent CNS receptors, channels, and transporters (PDSP panel) (Homo sapiens, UniProt P28335); conditions: 5-HT2C, primary assay
T3 construct: expressed in transfected cells
T3 sequence (P28335 33-458): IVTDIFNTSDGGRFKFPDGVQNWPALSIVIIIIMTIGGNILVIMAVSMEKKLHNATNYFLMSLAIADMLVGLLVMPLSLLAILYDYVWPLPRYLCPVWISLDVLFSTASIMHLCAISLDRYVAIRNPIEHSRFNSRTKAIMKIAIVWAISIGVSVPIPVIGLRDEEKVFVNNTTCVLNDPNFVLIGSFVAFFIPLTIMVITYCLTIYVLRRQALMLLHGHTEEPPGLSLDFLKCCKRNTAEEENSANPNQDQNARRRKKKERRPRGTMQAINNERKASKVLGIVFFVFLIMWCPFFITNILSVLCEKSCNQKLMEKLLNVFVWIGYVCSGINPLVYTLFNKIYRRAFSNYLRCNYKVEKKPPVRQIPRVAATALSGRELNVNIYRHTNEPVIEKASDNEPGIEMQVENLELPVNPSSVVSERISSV
Procedure, shortened: as §1

[4] = target: T4, cloned human or rodent CNS receptors, channels, and transporters (PDSP panel) (Homo sapiens, UniProt P31645); conditions: SERT, primary assay
T4 construct: expressed in transfected cells
T4 sequence (P31645 whole entry): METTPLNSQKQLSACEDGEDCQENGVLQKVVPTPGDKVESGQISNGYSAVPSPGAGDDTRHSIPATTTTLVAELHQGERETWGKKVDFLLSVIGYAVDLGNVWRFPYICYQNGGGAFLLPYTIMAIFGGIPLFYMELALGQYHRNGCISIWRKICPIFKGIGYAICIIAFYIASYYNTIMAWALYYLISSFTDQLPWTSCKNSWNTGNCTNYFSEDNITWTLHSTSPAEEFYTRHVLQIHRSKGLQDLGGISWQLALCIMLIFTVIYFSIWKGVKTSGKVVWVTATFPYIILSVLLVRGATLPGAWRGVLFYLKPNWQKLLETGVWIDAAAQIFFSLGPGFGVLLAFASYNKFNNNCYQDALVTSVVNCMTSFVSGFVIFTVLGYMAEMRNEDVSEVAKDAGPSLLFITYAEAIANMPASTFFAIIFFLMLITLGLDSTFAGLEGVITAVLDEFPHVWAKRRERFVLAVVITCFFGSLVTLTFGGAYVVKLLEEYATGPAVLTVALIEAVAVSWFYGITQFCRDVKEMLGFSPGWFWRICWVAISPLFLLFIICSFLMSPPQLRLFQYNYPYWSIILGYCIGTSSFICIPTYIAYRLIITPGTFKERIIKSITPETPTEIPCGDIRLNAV
Procedure, shortened: as §1

[5] = target: T5, cloned human or rodent CNS receptors, channels, and transporters (PDSP panel) (Homo sapiens, UniProt P46098); conditions: 5-HT3, primary assay
T5 construct: expressed in transfected cells
T5 sequence (P46098 24-478): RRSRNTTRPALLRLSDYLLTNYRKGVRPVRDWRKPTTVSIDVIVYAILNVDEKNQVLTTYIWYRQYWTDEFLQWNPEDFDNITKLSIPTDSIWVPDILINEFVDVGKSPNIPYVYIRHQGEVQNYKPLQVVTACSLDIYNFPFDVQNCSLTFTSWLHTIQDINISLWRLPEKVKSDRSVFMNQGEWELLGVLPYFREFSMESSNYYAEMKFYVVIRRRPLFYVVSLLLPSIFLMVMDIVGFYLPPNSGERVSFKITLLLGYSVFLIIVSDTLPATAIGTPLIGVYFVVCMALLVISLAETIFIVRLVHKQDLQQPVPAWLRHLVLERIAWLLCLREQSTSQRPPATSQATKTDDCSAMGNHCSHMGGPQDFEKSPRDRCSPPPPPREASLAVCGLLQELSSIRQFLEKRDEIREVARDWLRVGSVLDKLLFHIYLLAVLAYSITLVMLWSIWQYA
Procedure, shortened: as §1

[6] = target: T6, cloned human or rodent CNS receptors, channels, and transporters (PDSP panel) (Homo sapiens, UniProt Q01959); conditions: DAT, primary assay
T6 construct: expressed in transfected cells
T6 sequence (Q01959 whole entry): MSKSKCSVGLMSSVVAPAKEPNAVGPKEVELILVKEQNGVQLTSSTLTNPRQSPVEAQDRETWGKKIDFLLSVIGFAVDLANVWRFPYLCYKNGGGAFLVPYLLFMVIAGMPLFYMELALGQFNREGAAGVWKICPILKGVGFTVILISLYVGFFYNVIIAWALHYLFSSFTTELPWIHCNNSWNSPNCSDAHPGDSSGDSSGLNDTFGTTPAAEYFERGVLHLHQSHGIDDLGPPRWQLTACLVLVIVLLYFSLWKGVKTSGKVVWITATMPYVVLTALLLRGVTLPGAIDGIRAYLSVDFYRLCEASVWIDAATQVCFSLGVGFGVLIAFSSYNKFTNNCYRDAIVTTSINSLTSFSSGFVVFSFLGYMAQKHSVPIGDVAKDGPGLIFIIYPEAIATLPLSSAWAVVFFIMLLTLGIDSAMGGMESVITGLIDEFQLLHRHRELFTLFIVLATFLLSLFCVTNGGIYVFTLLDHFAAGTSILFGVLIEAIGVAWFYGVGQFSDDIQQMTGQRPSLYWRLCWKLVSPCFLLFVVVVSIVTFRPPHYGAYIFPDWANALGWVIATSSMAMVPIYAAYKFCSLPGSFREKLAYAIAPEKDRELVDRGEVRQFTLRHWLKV
Procedure, shortened: as §1

Substance: MDL 28170 [UNC10302675A]
- Mean % ([1]; mean inhibition): 7.01%
- Inhibition 1 ([1]; replicate 1): 5.86%
- Inhibition 2 ([1]; replicate 2): -14.36%
- Inhibition 3 ([1]; replicate 3): 13.67%
- Inhibition 4 ([1]; replicate 4): 22.85%
- Mean % ([2]; mean inhibition): 0.92%
- Inhibition 1 ([2]; replicate 1): 9.77%
- Inhibition 2 ([2]; replicate 2): 7.35%
- Inhibition 3 ([2]; replicate 3): -4.01%
- Inhibition 4 ([2]; replicate 4): -9.41%
- Mean % ([3]; mean inhibition): -9.69%
- Inhibition 1 ([3]; replicate 1): -16.2%
- Inhibition 2 ([3]; replicate 2): -15.21%
- Inhibition 3 ([3]; replicate 3): 9.82%
- Inhibition 4 ([3]; replicate 4): -17.18%
- Mean % ([4]; mean inhibition): -4.02% and -0.38%
- Inhibition 1 ([4]; replicate 1): 19.12% and 14.24%
- Inhibition 2 ([4]; replicate 2): -10.98% and 6.75%
- Inhibition 3 ([4]; replicate 3): -20.47% and -17.68%
- Inhibition 4 ([4]; replicate 4): -3.73% and -4.82%
- Mean % ([5]; mean inhibition): -2.62%
- Inhibition 1 ([5]; replicate 1): -0.93%
- Inhibition 2 ([5]; replicate 2): 2.95%
- Inhibition 3 ([5]; replicate 3): -29.22%
- Inhibition 4 ([5]; replicate 4): 16.71%
- Mean % ([6]; mean inhibition): 35.54%
- Inhibition 1 ([6]; replicate 1): 41.81%
- Inhibition 2 ([6]; replicate 2): 27.44%
- Inhibition 3 ([6]; replicate 3): 32.41%
- Inhibition 4 ([6]; replicate 4): 40.51%

Source: publication PMC9005681, “Use of AD Informer Set compounds to explore validity of novel targets in Alzheimer's disease pathology” (Alzheimer's & Dementia : Translational Research & Clinical …, 2022)
